Laboratory results taken from US9029414B2, “Triterpenoid compounds and methods of use thereof” (Biotechnology Research Corporation, priority 2008, dated 2015).

How the values were obtained:
EP2 receptor = EP2 receptor (Homo sapiens, UniProt P43116); test: Radioligand competition binding assay, EP2; conditions: EP2, target PGE2; compound at 10 μM in duplicate; read-out: % inhibition of control specific binding
Protocol: DA001 was further evaluated against 32 receptor binding assays. Radioligand competition assays were conducted whereby DA001 was tested at one concentration (10 uM) in duplicate. […] It could compete with the radioligand [^3H] PGE2 binding at the EP1 and EP4 receptors, and weakly competed with the EP2 and FP receptors.
To determine the targets of DA compounds, the compound was assessed in binding assays for the family of prostanoid receptors. Both compounds were tested at a single concentration (10 μM) in duplicate. DA001 and DA021 inhibit the ligand binding of prostaglandin E2 receptors EP1, EP2 and EP4 and moderately to prostaglandin (PGF) to its receptor (FP), but not prostaglandin I (PGI2), thromoboxane A and prostaglandin D2 to their receptors.

[1] = system: phosphorylated STAT3, STAT4, STAT6 in splenocytes of EAE mice; test: Western blot of phosphorylated STAT proteins in EAE splenocytes; format: cell-based; conditions: exogenous 30 μM, MOG 25 μg/mL, splenocytes of vehicle-treated EAE mice
Protocol: On day 21, EAE mice were sacrificed by cervical dislocation and spleens were removed aseptically. The removed spleens were then cut with sterilized scissors and strained through […] mesh (BD Bioscience) with a plunger of 5 mL syringe (BD Bioscience) in 9 mL of RPMI 1640 (Invitrogen) with 100 U/mL penicillin and 100 μg/mL streptomycin (Sigma). The cell mixture was then added to 9 mL of Lympholyte (Cedarlane Laboratories) for gradient separation of splenocytes from red bloods cells by centrifugation at 1500 g for 20 min. After the centrifugation, the lympholyte layer containing splenocytes were carefully removed and washed with 10 mL of RPMI 1640 at 800 g for 10 min for three times. The isolated splenocytes were seeded onto different plate format and cultured with RPMI 1640 medium (Invitrogen) supplement with 10% heat inactivated fetal bovine serum (Invitrogen) and 100 U/mL penicillin and 100 μg/mL streptomycin at 37° C. CO2 incubator.
Splenocytes of EAE mice were cultured at the density of 1×10^7 cells in 6-well plates (Falcon) and treated with the absence or presence of the MOG peptide (25 μg/mL) (Hooke Laboratories), DA001, and DA021 (30 μM) for 24 h. After overnight incubation, the splenocytes were lysed with RIPA containing antipain dihydrochloride, trypsin inhibitor, leupeptin, aprotinin, sodium orthovanadate, benzamidine and phenyl methane sulphonyl fluoride. After centrifugation at 14000 rpm for 15 min, 4° C., protein concentrations were determined by Dc Protein Assay kit (Bio-Rad). 20 μg of each sample was subjected to 10% SDS-PAGE with 20 mA for 3 h. Immunoblot analysis was performed by transfer of proteins onto nitrocellulose membranes using a mini trans-blot apparatus (Bio-Rad). After 2 h blocking with milk, the membranes were incubated overnight at 4° C. with specific primary Abs (1:1000): anti-phospho-Stat 3 (Cell signaling), anti-phospho-Stat 4 (BD Bioscience), and anti-phospho-Stat 6 (Cell signaling). Anti-α-tubulin (Sigma) was used as a loading control. After washing, subsequent incubation with anti-rabbit or anti-mouse HRP-conjugated secondary antibody (1:3000) (Cell Signaling) for 1 h at room temperature was carried out. The signal was detected by ECL Western blot detection kit (GE Healthcare).
The efficacy of DA compounds in modulating the expression of pro-inflammation proteins was examined. Western blot analysis was performed on cultured splenocytes isolated from the spleen of EAE mice and the expression of signal transducers and activators of transcription (STAT) proteins was examined in response to exogenous treatments of MOG (25 μg/mL), DA001 (30 μM) and DA021 (30 μM). Exogenous addition of MOG [MOG (Ex)] to EAE splenocytes is shown to robustly increase the phosphorylation of STAT3, STAT4, and STAT6.
Western blot analysis was performed as described in the methodology.

cortical neurons = test: Cortical neuron survival assay against glutamate excitotoxicity (LDH); format: cell-based, Sprague-Dawley rats; conditions: 30 μM 24 hrs, glutamate 10-200 μM 20 min; at high concentrations of glutamate
Protocol: Hippocampal neurons/cortical neurons were prepared from embryonic day 18 Sprague-Dawley rats. After the cortices had been removed from the brain, isolated cells were plated onto Poly d-Lysine (PDL) (P0899, Sigma)-coated 48 well plates (150687, NUNC) at a density of 2×10^5 cell per well using Neurobasal Medium (NB) (21103-049, Gibco) with B27 supplement (17504-044, Gibco), penicillin/streptomycin (15140, Gibco) and 1 mM L-glutamine (25030, Gibco). The cell culture was incubated at 37° C. in a humidified atmosphere of 5% CO2 in air. Medium was changed to growth medium (Neurobasal Medium with penicillin/streptomycin and B27 supplement) after 3 hours. Half medium was changed with growth medium every 2-3 days to maintain the cells until day 10 in vitro (DIV 10). Serial dilutions of samples were prepared in growth medium and DMSO was used as vehicle control. For pre-treating assay, half of the medium was removed from wells, and equal amount of diluted samples were replaced. Cells were then incubated for 2 hours at 37° C. in a humidified atmosphere of 5% CO2 in air. […] Afterwards, cells were incubated in growth medium for 18-24 hours and detected with Cytotoxicity Detection Kit (1644793, Roche).
Cortical neurons were pre-treated with DA021 or DA034 and subsequently subjected to varying concentrations of glutamate (10-200 μM). […] LDH release into the medium was then measured.

EP2 receptor, sequence (P43116 whole entry): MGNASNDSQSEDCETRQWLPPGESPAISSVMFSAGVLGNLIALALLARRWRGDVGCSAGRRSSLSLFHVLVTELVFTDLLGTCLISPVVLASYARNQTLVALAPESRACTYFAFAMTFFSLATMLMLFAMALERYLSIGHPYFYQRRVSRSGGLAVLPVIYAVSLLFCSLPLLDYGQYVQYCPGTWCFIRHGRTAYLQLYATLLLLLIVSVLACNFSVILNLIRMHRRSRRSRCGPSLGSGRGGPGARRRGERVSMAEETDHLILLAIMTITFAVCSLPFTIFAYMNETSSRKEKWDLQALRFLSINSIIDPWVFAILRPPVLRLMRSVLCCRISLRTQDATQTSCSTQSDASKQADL

Structure (SMILES)	inhibition at 10 µM (EP2 receptor)	MOG-induced STAT3 phosphorylation [1]	MOG-induced STAT4 phosphorylation [1]	cell death (LDH release) vs DMSO control (cortical neurons)	STAT6 phosphorylation [1]
C=C(C)[C@@H]1CC[C@]2(C(=O)O)CC[C@]3(C)C(CC[C@@H]4[C@@]5(C)CC[C@H](O[C@@H]6OC[C@H](O)[C@H](O)[C@H]6O[C@@H]6O[C@@H](C)[C@H](O)[C@@H](O)[C@H]6O)[C@@](C)(CO)[C@@H]5CC[C@]43C)[C@@H]12 (stereo partly drawn) [DA001, 3-O-[α-L-rhamnopyranosyl-(1→2)-α-L-arabinopyranosyl]-3,23-dihydroxy-20(29)-lupen-28-oic acid]	31%	significantly decreased	significantly decreased		
C=C(C)[C@@H]1CC[C@]2(/C=N/O)CC[C@]3(C)C(CCC4[C@@]5(C)CCC(=O)[C@@](C)(CO)[C@@H]5CC[C@]43C)C12 (stereo partly drawn) [DA021]	42%	significantly decreased	significantly decreased	significant reduction in cell death	marked decrease
CC(=O)OC[C@]12CC[C@@H](C3(C)CO3)C1C1CCC3[C@@]4(C)CC[C@H](O)[C@@](C)(CO)[C@@H]4CC[C@@]3(C)[C@]1(C)CC2 (stereo partly drawn) [DA034]				significant reduction in cell death	
